US20130123215A1, “2,5-DIOXOIMIDAZOLIDIN-1-YL-3-PHENYLUREA DERIVATIVES AS FORMYL PEPTIDE RECEPTOR LIKE-1 (FPRL-1) RECEPTOR MODULATORS” (ALLERGAN, INC., priority 2011, published 2013)

Biological target: T1, FPRL-1 (Homo sapiens, UniProt P25090)
T1 construct: expressed in transfected cells; host or cells: CHO-Gα16 cells stably expressing FPRL1
T1 sequence (P25090 1-351): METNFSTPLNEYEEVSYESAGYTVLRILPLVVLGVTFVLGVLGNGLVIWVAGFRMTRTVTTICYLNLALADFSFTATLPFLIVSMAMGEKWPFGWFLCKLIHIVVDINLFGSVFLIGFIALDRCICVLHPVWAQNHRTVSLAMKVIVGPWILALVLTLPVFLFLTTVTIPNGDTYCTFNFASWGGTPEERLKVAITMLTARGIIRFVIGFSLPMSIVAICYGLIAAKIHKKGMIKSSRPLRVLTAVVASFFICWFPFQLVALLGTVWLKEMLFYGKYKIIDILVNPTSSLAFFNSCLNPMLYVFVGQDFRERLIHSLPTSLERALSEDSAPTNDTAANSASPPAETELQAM
Assay: FPRL-1 Ga16-CHO compound-induced calcium activity (FLIPR Tetra)
Assay type: cell-based
Settings: CHO-Gα16 cells stably expressing FPRL1; calcium activity on FLIPR Tetra; tested at 0.61 to 10,000 nM; read-out: FPRL-1 Ga16-CHO EC50
Procedure: HEK-Gα16 and CHO-Gα16 cells stably expressing FPRL1 were cultured in (F12, 10% FBS, 1% PSA, 400 μg/ml geneticin and 50 μg/ml hygromycin) and HEK-Gqi5 cells stable expressing FPR1 were cultured in (DMEM high glucose, 10% FBS, 1% PSA, 400 μg/ml geneticin and 50 μg/ml hygromycin). In general, the day before the experiment, 18,000 cells/well were plated in a 384-well clear bottom poly-d-lysine coated plate. The following day the screening compound-induced calcium activity was assayed on the FLIPR^Tetra. The drug plates were prepared in 384-well microplates using the EP3 and the MultiPROBE robotic liquid handling systems. Compounds were tested at concentrations ranging from 0.61 to 10,000 nM. Results are expressed as EC50 (nM) and efficacy values.

| EC50 [nM] | Structure (SMILES) |
| --- | --- |
| 15.6 | CCC1(CC)NC(=O)N(NC(=O)Nc2ccc(Br)cc2F)C1=O [Compound 6, 1-(4-Bromo-2-fluorophenyl)-3-(4,4-diethyl-2,5-dioxoimidazolidin-1-yl)urea] |
| 39 | CCC1(CC)NC(=O)N(NC(=O)Nc2ccc(Cl)cc2F)C1=O [Compound 16, 1-(4-Chloro-2-fluorophenyl)-3-(4,4-diethyl-2,5-dioxoimidazolidin-1-yl)urea] |
